{"source": "patent US6251882A", "about": "“Alkyl ketones as potent anti-cancer agents” (Parker Hughes Institute, priority 1999, dated 2001)", "key": {"BT-20 (breast cancer)": {"test_system": "BT-20 (breast cancer)", "assay": "MTT cytotoxicity assay, BT-20", "assay_type": "cell-based", "settings": "Homo sapiens, 24-36 hours at 37° C., 0.1 to 250 μM", "procedure": "(§1) Cytotoxicity of various compounds against tumor cells was performed using the MTT (3-[4,5-[…]]-2,5-diphenyl tetrazolium bromide) assay (Boehringer Mannheim Corp., Indianapolis, Ind.). Unless otherwise specified, all cell lines were obtained from the American Type Culture Collection (ATCC). Briefly, exponentially growing cells were seeded into a 96-well plate at a density of 2.5×10^4 cells/well and incubated for 36 hours at 37° C. prior to drug exposure. On the day of treatment, culture medium was carefully aspirated from the wells and replaced with fresh medium containing the indicated compound at concentrations ranging from 0.1 to 250 μM. Triplicate wells were used for each treatment.\n(§2) Human leukemic cell lines (NALM-6, MOLT-3) glioblastoma cells (U373) and human breast tumor cell lines (BT20 and MDA-MB-231) were obtained from the American Type Culture Collection and maintained as a continuous cell line in Dulbecco's modified Eagles's medium supplemented with 10% fetal bovine serum and antibiotics.\n(§3) The cells were incubated with the various compounds for 24-36 hours at 37° C. in a humidified 5% CO2 atmosphere. To each well, 10 μl of MTT (0.5 mg/ml final concentration) was added and the plates were incubated at 37° C. for 4 hours to allow MTT to form formazan crystals by reacting with metabolically active cells. The formazan crystals were solubilized overnight at 37° C. in a solution containing 10% SDS in 0.01 M HCl. The absorbence of each well was measured in a microplate reader (Labsystems) at 540 nm and a reference wavelength of […]. To translate the OD540 values into the number of live cells in each well, the OD540 values were compared to those on standard OD540 --versus--cell number curves generated for each cell line. The percent survival was calculated using the formula: [formula]\n(§4) The IC50 values were calculated by non-linear regression analysis and are shown below in Tables 1-6."}, "PC-3 (prostate cancer)": {"test_system": "PC-3 (prostate cancer)", "assay": "MTT cytotoxicity assay, PC-3", "assay_type": "cell-based", "settings": "24-36 hours at 37° C., 0.1 to 250 μM", "procedure": "as §1, §3, §4"}, "Nalm-6 (B-lineage ALL)": {"test_system": "Nalm-6 (B-lineage ALL)", "assay": "MTT cytotoxicity assay, Nalm-6", "assay_type": "cell-based", "settings": "Homo sapiens, 24-36 hours at 37° C., 0.1 to 250 μM", "procedure": "as §1, §2, §3, §4"}, "MOLT-3 cells": {"test_system": "MOLT-3 cells", "assay": "Apoptosis induction, MOLT-3 cells", "assay_type": "cell-based", "settings": "Homo sapiens, MOLT-3, 24 h; vs vehicle control (FIG. 3)", "procedure": "The ability of HI-131 to induce apoptosis cells was evaluated in human leukemia in NALM-6 cells and primary leukemic cells from 2 patients. Cells were treated with 50 μM compound HI-131 for 24 hours. After incubation, the cells were harvested and analyzed for apoptosis by in situ TUNNEL analysis and confocal laser scanning microscopy as described in Sudbeck et al., 1999, Clin Cancer Res., 5:1589-82. Controls were treated with vehicle alone.\nInduction of apoptosis was further evaluated in primary leukemic cells and established NALM-6 and MOLT-3 cell lines following treatment with HI-131."}, "[1]": {"test_system": "MDA-MB-231 breast cancer cells", "assay": "Adhesion assay to ECM proteins, MDA-MB-231", "assay_type": "cell-based, human", "settings": "laminin, fibronectin or type IV collagen; 16 hours (FIG. 6)", "procedure": "A human brain tumor cell line derived from an adult patient with glioblastoma, U-373 MG (Cat. #HTB-17) and MDA-MB-231 breast cancer cells (Cat. #HTB-26) were obtained from American Type Culture Collection (ATCC, Manassas, Va.) and maintained in liquid culture using DMEM supplemented with 10% fetal bovine serum and antibiotics. Fibroblast conditioned medium was used as a source of chemoattractant in vitro invasion assays. Conditioned medium was prepared as described previously (Albini, et al., 1987, Cancer Res., 47:3239-3245). […]\nIn adhesion assays, cells were centrifuged, washed twice with serum-free DMEM, counted and resuspended in serum-free DMEM to a final concentration of 2.5×10^5 cells/ml. […] The adherent fraction was quantitated using MTT (3-[4,5-dimethylthiazol-2-yl]-2,5-diphenyltetrazolium bromide) assays. […] The absorbance of each well was measured in a microplate reader (Labsystems) at […] and a reference wavelength of 690 nm. […] The adherent fraction of cells treated with HI-131 was compared to the DMSO-treated control cells and the percent adhesion relative to the control was determined.\nEach treatment condition was evaluated in duplicate in 3 independent experiments. The IC50 values were calculated by non-linear regression analysis."}, "U-373 (glioblastoma)": {"test_system": "U-373 (glioblastoma)", "assay": "MTT cytotoxicity assay, U-373", "assay_type": "cell-based", "settings": "Homo sapiens, U373 MG, 24-36 hours at 37° C., 0.1 to 250 μM", "procedure": "as §1, §2, §3, §4"}}}
{"smiles": "CCCCCCCCCCCCSC[C@H](NC(C)=O)C(=O)CCl", "note": "[HI-131, N-Ac-S-dodecyl-Cys chloromethyl ketone]", "values": [{"measurement": "IC50", "setting": "BT-20 (breast cancer)", "result": 10, "unit": "µM"}, {"measurement": "IC50", "setting": "PC-3 (prostate cancer)", "result": 22.1, "unit": "µM"}, {"measurement": "IC50", "setting": "Nalm-6 (B-lineage ALL)", "result": 2, "unit": "µM"}, {"measurement": "fold induction at 50 µM", "setting": "MOLT-3 cells", "result": "~20"}, {"measurement": "loss of adhesion, MDA-MB-231", "setting": "[1]", "result": "dose-dependent loss of adhesion"}, {"measurement": "IC50", "setting": "U-373 (glioblastoma)", "result": 35.1, "unit": "µM"}]}
